Measured values as given in patent publication US20120010075A1 (priority 2009, published 2012).

system: Leptosphaeria nodorum (LEPTNO); assay: In vitro fungitoxicity of hydrazones with and without copper towards Leptosphaeria nodorum (Example 26); format: cell-based; settings: Parastagonospora nodorum, 72 h, copper-minus medium; test compound Concn. 0.05 μg/mL; 72 h at 25° C.; read-out: LEPTNO % Inhn. Minus Copper Observed

Row | Compound | inhibition of growth at 0.05 µg/mL
1 | O=C(N/N=C/c1c(C(F)(F)F)ccc(Cl)c1O)c1ccccc1 [Example 319] | 18.1%
2 | Cc1cccc(C(=O)N/N=C/c2cc(C(F)(F)F)cc(Cl)c2O)c1 [Example 321] | 11.7%
3 | Cc1ccc(C(=O)N/N=C/c2cc(C(F)(F)F)cc(Cl)c2O)cc1 [Example 322] | 20.9%
4 | O=C(N/N=C/c1cc(C(F)(F)F)cc(Cl)c1O)c1cccc(F)c1 [Example 323] | 16.1%
5 | O=C(N/N=C/c1cc(C(F)(F)F)cc(Cl)c1O)c1ccc(F)cc1 [Example 324] | 2.3%
6 | O=C(N/N=C/c1cc(C(F)(F)F)cc(Cl)c1O)c1cccc(Cl)c1 [Example 325] | 0%
7 | O=C(N/N=C/c1cc(C(F)(F)F)cc(Cl)c1O)c1ccc(Cl)cc1 [Example 326] | 6.9%
8 | O=C(N/N=C/c1cc(C(F)(F)F)cc(Cl)c1O)c1cccc([N+](=O)[O-])c1 [Example 327] | 1.2%
9 | O=C(N/N=C/c1cc(C(F)(F)F)cc(Cl)c1O)c1ccc([N+](=O)[O-])cc1 [Example 328] | 0%
10 | O=C(N/N=C/c1cc(C(F)(F)F)cc(Cl)c1O)c1ccccc1C(F)(F)F [Example 330] | 5.3%
11 | Cc1ccc(C(=O)N/N=C/c2cc(C(F)(F)F)cc(Cl)c2O)c(O)c1 [Example 331] | 22.8%
12 | Cc1cccc(C(=O)N/N=C/c2cc(C(F)(F)F)cc(C(F)(F)F)c2O)c1 [Example 332] | 2%
13 | Cc1ccc(C(=O)N/N=C/c2cc(C(F)(F)F)cc(C(F)(F)F)c2O)cc1 [Example 333] | 16.2%
14 | O=C(N/N=C/c1cc(C(F)(F)F)cc(C(F)(F)F)c1O)c1cccc(F)c1 [Example 334] | 10.9%
15 | O=C(N/N=C/c1cc(C(F)(F)F)cc(C(F)(F)F)c1O)c1ccc(F)cc1 [Example 335] | 10.2%
16 | O=C(N/N=C/c1cc(C(F)(F)F)cc(C(F)(F)F)c1O)c1cccc(Cl)c1 [Example 336] | 16.6%
17 | O=C(N/N=C/c1cc(C(F)(F)F)cc(C(F)(F)F)c1O)c1cccc([N+](=O)[O-])c1 [Example 338] | 9%
18 | O=C(N/N=C/c1cc(C(F)(F)F)cc(C(F)(F)F)c1O)c1ccc([N+](=O)[O-])cc1 [Example 339] | 1.5%
19 | O=C(N/N=C/c1cc(C(F)(F)F)cc(C(F)(F)F)c1O)c1ccccc1O [Example 340] | 18%
20 | O=C(N/N=C/c1cc(C(F)(F)F)cc(C(F)(F)F)c1O)c1ccccc1C(F)(F)F [Example 341] | 1.2%

same assay, conditions: copper-plus medium (CuCl2 10 μM); test compound Concn. 0.05 μg/mL; 72 h at 25° C.

Row | Compound | LEPTNO % Inhn. Plus Copper Observed
21 | O=C(N/N=C/c1c(C(F)(F)F)ccc(Cl)c1O)c1ccccc1 [Example 319] | 96.6%
22 | Cc1cccc(C(=O)N/N=C/c2cc(C(F)(F)F)cc(Cl)c2O)c1 [Example 321] | 96.6%
23 | Cc1ccc(C(=O)N/N=C/c2cc(C(F)(F)F)cc(Cl)c2O)cc1 [Example 322] | 97.9%
24 | O=C(N/N=C/c1cc(C(F)(F)F)cc(Cl)c1O)c1cccc(F)c1 [Example 323] | 98.1%
25 | O=C(N/N=C/c1cc(C(F)(F)F)cc(Cl)c1O)c1ccc(F)cc1 [Example 324] | 96.3%
26 | O=C(N/N=C/c1cc(C(F)(F)F)cc(Cl)c1O)c1cccc(Cl)c1 [Example 325] | 95.7%
27 | O=C(N/N=C/c1cc(C(F)(F)F)cc(Cl)c1O)c1ccc(Cl)cc1 [Example 326] | 95.6%
28 | O=C(N/N=C/c1cc(C(F)(F)F)cc(Cl)c1O)c1cccc([N+](=O)[O-])c1 [Example 327] | 95.7%
29 | O=C(N/N=C/c1cc(C(F)(F)F)cc(Cl)c1O)c1ccc([N+](=O)[O-])cc1 [Example 328] | 95.1%
30 | O=C(N/N=C/c1cc(C(F)(F)F)cc(Cl)c1O)c1ccccc1C(F)(F)F [Example 330] | 92.9%
31 | Cc1ccc(C(=O)N/N=C/c2cc(C(F)(F)F)cc(Cl)c2O)c(O)c1 [Example 331] | 97.8%
32 | Cc1cccc(C(=O)N/N=C/c2cc(C(F)(F)F)cc(C(F)(F)F)c2O)c1 [Example 332] | 93.9%
33 | Cc1ccc(C(=O)N/N=C/c2cc(C(F)(F)F)cc(C(F)(F)F)c2O)cc1 [Example 333] | 93.2%
34 | O=C(N/N=C/c1cc(C(F)(F)F)cc(C(F)(F)F)c1O)c1cccc(F)c1 [Example 334] | 97.8%
35 | O=C(N/N=C/c1cc(C(F)(F)F)cc(C(F)(F)F)c1O)c1ccc(F)cc1 [Example 335] | 96.8%
36 | O=C(N/N=C/c1cc(C(F)(F)F)cc(C(F)(F)F)c1O)c1cccc(Cl)c1 [Example 336] | 97.8%
37 | O=C(N/N=C/c1cc(C(F)(F)F)cc(C(F)(F)F)c1O)c1cccc([N+](=O)[O-])c1 [Example 338] | 98.1%
38 | O=C(N/N=C/c1cc(C(F)(F)F)cc(C(F)(F)F)c1O)c1ccc([N+](=O)[O-])cc1 [Example 339] | 95.4%
39 | O=C(N/N=C/c1cc(C(F)(F)F)cc(C(F)(F)F)c1O)c1ccccc1O [Example 340] | 96.2%
40 | O=C(N/N=C/c1cc(C(F)(F)F)cc(C(F)(F)F)c1O)c1ccccc1C(F)(F)F [Example 341] | 88.9%

system: Phytophthora infestans; assay: not given; format: in vivo, Phytophthora infestans on tomato; settings: hydrazone 50 ppm with 50 μM CuCl2.2H2O, applied 24 h before inoculation; assessed 7 days after inoculation; tomato late blight

Row | Compound | TLB % Control
41 | O=C(N/N=C/c1c(C(F)(F)F)ccc(Cl)c1O)c1ccccc1 [Example 319] | 78.0%
42 | Cc1cccc(C(=O)N/N=C/c2cc(C(F)(F)F)cc(Cl)c2O)c1 [Example 321] | 100.0%
43 | Cc1ccc(C(=O)N/N=C/c2cc(C(F)(F)F)cc(Cl)c2O)cc1 [Example 322] | 95.0%
44 | O=C(N/N=C/c1cc(C(F)(F)F)cc(Cl)c1O)c1cccc(F)c1 [Example 323] | 100.0%
45 | O=C(N/N=C/c1cc(C(F)(F)F)cc(Cl)c1O)c1ccc(F)cc1 [Example 324] | 98.0%
46 | O=C(N/N=C/c1cc(C(F)(F)F)cc(Cl)c1O)c1cccc(Cl)c1 [Example 325] | 100.0%
47 | O=C(N/N=C/c1cc(C(F)(F)F)cc(Cl)c1O)c1ccc(Cl)cc1 [Example 326] | 93.0%
48 | O=C(N/N=C/c1cc(C(F)(F)F)cc(Cl)c1O)c1cccc([N+](=O)[O-])c1 [Example 327] | 98.0%
49 | O=C(N/N=C/c1cc(C(F)(F)F)cc(Cl)c1O)c1ccc([N+](=O)[O-])cc1 [Example 328] | 99.0%
50 | O=C(N/N=C/c1cc(C(F)(F)F)cc(Cl)c1O)c1ccccc1C(F)(F)F [Example 330] | 99.0%
51 | Cc1ccc(C(=O)N/N=C/c2cc(C(F)(F)F)cc(Cl)c2O)c(O)c1 [Example 331] | 100.0%
52 | Cc1cccc(C(=O)N/N=C/c2cc(C(F)(F)F)cc(C(F)(F)F)c2O)c1 [Example 332] | 89.0%
53 | Cc1ccc(C(=O)N/N=C/c2cc(C(F)(F)F)cc(C(F)(F)F)c2O)cc1 [Example 333] | 85.0%
54 | O=C(N/N=C/c1cc(C(F)(F)F)cc(C(F)(F)F)c1O)c1cccc(F)c1 [Example 334] | 98.0%
55 | O=C(N/N=C/c1cc(C(F)(F)F)cc(C(F)(F)F)c1O)c1ccc(F)cc1 [Example 335] | 95.0%
56 | O=C(N/N=C/c1cc(C(F)(F)F)cc(C(F)(F)F)c1O)c1cccc(Cl)c1 [Example 336] | 98.0%
57 | O=C(N/N=C/c1cc(C(F)(F)F)cc(C(F)(F)F)c1O)c1cccc([N+](=O)[O-])c1 [Example 338] | 96.0%
58 | O=C(N/N=C/c1cc(C(F)(F)F)cc(C(F)(F)F)c1O)c1ccc([N+](=O)[O-])cc1 [Example 339] | 100.0%
59 | O=C(N/N=C/c1cc(C(F)(F)F)cc(C(F)(F)F)c1O)c1ccccc1O [Example 340] | 95.0%
60 | O=C(N/N=C/c1cc(C(F)(F)F)cc(C(F)(F)F)c1O)c1ccccc1C(F)(F)F [Example 341] | 63.0%

system: not given; assay: not given; settings: not given

Row | Compound | melting point
61 | O=C(N/N=C/c1c(C(F)(F)F)ccc(Cl)c1O)c1ccccc1 [Example 319] | 216 to 218 °C
62 | Cc1cccc(C(=O)N/N=C/c2cc(C(F)(F)F)cc(Cl)c2O)c1 [Example 321] | 204 to 206 °C
63 | Cc1ccc(C(=O)N/N=C/c2cc(C(F)(F)F)cc(Cl)c2O)cc1 [Example 322] | 269 to 271 °C
64 | O=C(N/N=C/c1cc(C(F)(F)F)cc(Cl)c1O)c1cccc(F)c1 [Example 323] | 210 to 212 °C
65 | O=C(N/N=C/c1cc(C(F)(F)F)cc(Cl)c1O)c1ccc(F)cc1 [Example 324] | 200 to 202 °C
66 | O=C(N/N=C/c1cc(C(F)(F)F)cc(Cl)c1O)c1cccc(Cl)c1 [Example 325] | 210 to 212 °C
67 | O=C(N/N=C/c1cc(C(F)(F)F)cc(Cl)c1O)c1ccc(Cl)cc1 [Example 326] | 208 to 210 °C
68 | O=C(N/N=C/c1cc(C(F)(F)F)cc(Cl)c1O)c1cccc([N+](=O)[O-])c1 [Example 327] | 237 to 238 °C
69 | O=C(N/N=C/c1cc(C(F)(F)F)cc(Cl)c1O)c1ccc([N+](=O)[O-])cc1 [Example 328] | 253 to 255 °C
70 | O=C(N/N=C/c1cc(C(F)(F)F)cc(Cl)c1O)c1ccccc1C(F)(F)F [Example 330] | 169 to 171 °C
71 | Cc1ccc(C(=O)N/N=C/c2cc(C(F)(F)F)cc(Cl)c2O)c(O)c1 [Example 331] | 255 to 257 °C
72 | Cc1cccc(C(=O)N/N=C/c2cc(C(F)(F)F)cc(C(F)(F)F)c2O)c1 [Example 332] | 210 to 213 °C
73 | Cc1ccc(C(=O)N/N=C/c2cc(C(F)(F)F)cc(C(F)(F)F)c2O)cc1 [Example 333] | 274 to 277 °C
74 | O=C(N/N=C/c1cc(C(F)(F)F)cc(C(F)(F)F)c1O)c1cccc(F)c1 [Example 334] | 240 to 242 °C
75 | O=C(N/N=C/c1cc(C(F)(F)F)cc(C(F)(F)F)c1O)c1ccc(F)cc1 [Example 335] | 226 to 228 °C
76 | O=C(N/N=C/c1cc(C(F)(F)F)cc(C(F)(F)F)c1O)c1cccc(Cl)c1 [Example 336] | 230 to 233 °C
77 | O=C(N/N=C/c1cc(C(F)(F)F)cc(C(F)(F)F)c1O)c1cccc([N+](=O)[O-])c1 [Example 338] | 256 to 258 °C
78 | O=C(N/N=C/c1cc(C(F)(F)F)cc(C(F)(F)F)c1O)c1ccc([N+](=O)[O-])cc1 [Example 339] | 244 to 247 °C
79 | O=C(N/N=C/c1cc(C(F)(F)F)cc(C(F)(F)F)c1O)c1ccccc1O [Example 340] | 231 to 235 °C
80 | O=C(N/N=C/c1cc(C(F)(F)F)cc(C(F)(F)F)c1O)c1ccccc1C(F)(F)F [Example 341] | 210 to 214 °C
